In US20230247995A1, “FUNGICIDAL COMBINATIONS” (UPL Corporation Limited, priority 2022, published 2023):

Tests used:
Format in all cases: in vivo
Monilinia fructicola = test: Efficacy against brown rot affecting peach crop; conditions: Ipflufenoquin 4, Pyrimethanil 8.9, combination 4 + 8.9 fl oz/a; for % Severity on Fruit: untreated 63.8; for % Disease incidence on Fruit: untreated 96
Protocol: Experiments were carried out to evaluate the efficacy of the fungicidal combination of ipflufenoquin and pyrimethanil against brown rot (Monilinia fructicola) affecting peach crop, as disclosed in Table 4.

Wilsonomyces spp. = test: Efficacy against Coryneum blight affecting peach crop; conditions: Ipflufenoquin 4, Pyrimethanil 8.9, combination 4 + 8.9 fl oz/a; for % Severity on Fruit: untreated 69.9; for % Disease incidence on Fruit: untreated 100
Protocol: Experiments were carried out to evaluate the efficacy of the fungicidal combination of ipflufenoquin and pyrimethanil against Coryneum blight (Wilsonomyces spp.) affecting peach crop, as disclosed in Table 5.

Cladosporium sp. = test: Efficacy against scab affecting pecan (nuts); conditions: untreated 33.8
Protocol: Experiments were carried out to evaluate the efficacy of the fungicidal combination of ipflufenoquin and pyrimethanil (both tank mix fungicidal combination and pre-mix formulation as disclosed in Example 1) against scab (Cladosporium sp.) affecting pecan (i.e., nuts), as disclosed in Table 6.

[1] = higher rates: Ipflufenoquin 5, Pyrimethanil 11.1, tank mix 5 + 11.1, pre-mix 12.5 fl oz/a
[2] = lower rates: Ipflufenoquin 4, Pyrimethanil 8.9, tank mix 4 + 8.9, pre-mix 10 fl oz/a

Row | SMILES | % Severity on Fruit (Monilinia fructicola) [%] | % Disease incidence on Fruit (Monilinia fructicola) [%] | % Severity on Fruit (Wilsonomyces spp.) [%] | % Disease incidence on Fruit (Wilsonomyces spp.) [%] | % Severity on Nuts (Cladosporium sp.; [1]) [%] | % Severity on Nuts (Cladosporium sp.; [2]) [%]
1 | Cc1nc2c(F)c(F)ccc2cc1Oc1cccc(F)c1C(C)(C)O [Ipflufenoquin, 2-{2-[(7,8-difluoro-2-methyl-3-quinolyl)oxy]-6-fluorophenyl}propan-2-ol] | 20.3 | 42.5 | 6.9 | 36.8 | 6.7 | 8.4
2 | Cc1cc(C)nc(Nc2ccccc2)n1 [Pyrimethanil, N-(4,6-dimethylpyrimidin-2-yl) aniline] | 15.5 | 19.5 | 42.8 | 65.8 | 15.7 | 19.2
